Test results: patent publication US4439444A, “Amidobenzamides, their salts and pharmaceutical compositions containing them” (Sanofi, priority 1981, dated 1984)
“Also recorded” adds a separate entry of the source. Read-outs that look alike come from different tables or passages of the source.

Assays:
[1] = biological target: T1, cardiac histamine H2 receptors (Cavia porcellus, UniProt P47747); assay: inhibition of the increase in frequency induced by histamine on the isolated right atrium of the guinea pig; format: cell-based; conditions: for Relative potency (cimetidine = 1): cardiac H2, from IC50, guinea pig right atrium
T1 construct: induced by histamine on the isolated right atrium of the guinea pig; from tissue; host or cells: isolated right atrium of the guinea pig
T1 sequence (P47747 whole entry): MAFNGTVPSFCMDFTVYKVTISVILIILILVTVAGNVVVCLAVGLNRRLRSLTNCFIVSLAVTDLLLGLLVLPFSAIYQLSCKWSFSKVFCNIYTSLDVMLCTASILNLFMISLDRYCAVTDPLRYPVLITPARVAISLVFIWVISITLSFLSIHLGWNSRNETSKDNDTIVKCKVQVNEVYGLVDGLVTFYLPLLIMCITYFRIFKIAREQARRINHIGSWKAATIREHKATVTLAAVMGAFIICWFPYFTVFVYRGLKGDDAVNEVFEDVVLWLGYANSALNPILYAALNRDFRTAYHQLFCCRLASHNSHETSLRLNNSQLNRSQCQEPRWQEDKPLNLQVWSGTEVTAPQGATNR
Source text: Such an IC50 represents the index of cardiac H2 blocking action.

[2] = biological target: T2, gastric histamine H2 receptors (Rattus norvegicus, UniProt P25102); assay: antisecretory activity: antagonism of histamine-induced gastric acid hypersecretion in rat (Ghosh and Schild); format: in vivo; conditions: for Relative potency (cimetidine = 1): gastric H2, from ID50, rat i.v.; for ED50: rat, read-out: ID50 (dose which inhibits by 50% the gastric hypersecretion induced by histamine); for antisecretory (gastric H2 blocking) activity in words: comparison from Table I
T2 construct: the gastric secretion is measured by perfusion of a physiological solution at a constant speed in the stomach of the animal; from tissue; host or cells: stomach of the living rat (in vivo, intravenous histamine infusion)
T2 sequence (P25102 whole entry, the tested form may be a part): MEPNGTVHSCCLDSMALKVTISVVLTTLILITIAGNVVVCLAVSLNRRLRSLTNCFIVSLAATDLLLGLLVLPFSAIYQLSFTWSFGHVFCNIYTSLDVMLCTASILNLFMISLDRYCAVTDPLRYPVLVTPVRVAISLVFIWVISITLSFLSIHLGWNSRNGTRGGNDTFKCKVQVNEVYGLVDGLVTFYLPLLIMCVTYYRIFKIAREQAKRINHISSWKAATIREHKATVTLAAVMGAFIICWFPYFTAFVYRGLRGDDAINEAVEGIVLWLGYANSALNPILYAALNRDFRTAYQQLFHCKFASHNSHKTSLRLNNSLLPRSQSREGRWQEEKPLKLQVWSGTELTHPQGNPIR
Procedure: According to this test, a gastric acid hypersecretion is induced by intravenous infusion of a sub-maximal dose of histamine equivalent to 15 mcmol/kg/hour and the gastric secretion is measured by perfusion of a physiological solution at a constant speed in the stomach of the animal.
Such a ID50 represents the index of the gastric H2 blocking action.

cardiac H2 receptors = conditions: Clinica Terapeutica, 1981, 96, 81-91; cited from earlier work
gastric acid secretion = conditions: rat; as oxalate; cited from earlier work
[3] = tested on: immature Sprague Dawley rats, castrated, testosterone-stimulated genitals and levator ani muscle; conditions: rat, in vivo, ip, 200 mg/kg/day
Procedure: Testosterone was administered by sub-cutaneous route, suspended in a vehicle for steroids, both at the dose of 0.2 mg/animal/day, and 0.4 mg/animal/day. […] As a control it was used a lot of animals treated with the vehicles only. The treatment lasted 8 days. The animals were killed 24 hours after the last injection, the ventral prostrate, the seminal vescicles and the levator ani were immediately drawn and weighed.

[4] = intravenous route, single administration, histamine infusion 15 mcmol/kg/hour

Structure (SMILES) | Relative potency (cimetidine = 1) [1] | Relative potency (cimetidine = 1) [2] | ED50 [2, 4] [µmol/kg] | also measured
CN(C)Cc1ccc(CSCCNC(=O)c2cccc(NS(C)(=O)=O)c2)o1 [CM 57822, 3-methanesulfonamido-N-[2-(5-dimethylaminomethylfuran-2-ylmethylthio)ethyl]benzamide] | 0.2 | 0.97 | 0.98 | 
CN(C)Cc1ccc(CSCCNC(=O)c2cccc(NC(=O)c3ccc[n+]([O-])c3)c2)o1 [SR 57912, 3-[(3-pyridine 1-oxyde)carboxamido]-N-[2-(5-dimethylaminomethylfuran-2-ylmethylthio)ethyl]benzamide] | 0.08 | 2.88 | 0.33 | antisecretory (gastric H2 blocking) activity in words [2]: very powerful; also recorded: very close to that of ranitidine
CN/C(=N/CCSCc1nc[nH]c1C)NC#N [Cimetidine, 2-cyano-1-methyl-3-[2[(5-methylimidazol-4-yl)methylthio]ethyl]guanidine, reference compound] |  |  |  | side effects in the treatment of the ulcerous disease (cardiac H2 receptors): bradycardia and of the asystolia observed as side effects; ED50 ([2]; iv): 0.95 µmol/kg
CNC(=C[N+](=O)[O-])NCCSCc1ccc(CN(C)C)o1 [Ranitidine, N-[2[[5-[(dimethylamino)methyl]furfuryl]thio]ethyl]-N'-methyl-2-nitro-1,1-ethenediamine, reference compound] | 5 | 3.80 |  | ED50 ([2]; iv): 0.25 µmol/kg
CN(C)Cc1ccc(CSCCNC(=O)c2cccc(NS(=O)(=O)c3cccs3)c2)o1 [SR 57975, 3-(2-thiophenesulfonamido)-N-[2-(5-dimethylaminomethylfuran-2-ylmethylthio)ethyl]benzamide] |  | 1.02 | 0.93 | 
CN(C)Cc1ccc(CSCCNC(=O)c2cccc(NC(=O)c3cccs3)c2)o1 [SR 57922, 3-(2-thienylcarboxamido)-N-[2-(5-dimethylaminomethylfuran-2-ylmethylthio)ethyl]benzamide] | 0.06 | 0.82 | 1.15 | 
CN(C)Cc1ccc(CSCCNC(=O)c2ccc(S(N)(=O)=O)cc2)o1 [N-[2-(5-dimethylaminomethylfuran-2-ylmethylthio)ethyl]-4-sulfamoylbenzamide] |  |  |  | ED50 in the gastric acid secretion inhibiting activity (gastric acid secretion): 2.54 mg/kg
CCCCS(=O)(=O)Nc1cccc(C(=O)NCCSCc2ccc(CN(C)C)o2)c1 [SR 57981 A, 3-butanesulfonamido-N-[2-(5-dimethylaminomethylfuran-2-ylmethylthio)ethyl]benzamide] |  | 1.94 | 0.49 | antisecretory (gastric H2 blocking) activity in words [2]: very powerful
CN(C)Cc1ccc(CSCCNC(=O)c2ccc(S(N)(=O)=O)cc2)o1 [Compound A, N-[2-(5-dimethylaminomethylfuran-2-ylmethylthio)ethyl]-4-sulfamoyl benzamide, reference compound] | 1.3 | 0.42 | 2.26 | cardiac H2 blocking activity in words (compared with cimetidine) ([1]; comparison from Table II): more active
CN(C)Cc1ccc(CSCCNC(=O)c2cccc(NS(=O)(=O)c3ccccc3)c2)o1 [CM 57888, 3-benzenesulfonamido-N-[2-(5-dimethylaminomethylfuran-2-ylmethylthio)ethyl]benzamide] |  |  |  | effect when testosterone was administered at the dose of 0.4 mg/animal/day [3]: did not exhibit any effect
CN(C)Cc1ccc(CSCCNC(=O)c2cccc(NC(=O)c3cccnc3)c2)o1.O=C(O)C(=O)O.O=C(O)C(=O)O [SR 57927 A, 3-(3-pyridinecarboxamido)-N-[2-(5-dimethylaminomethylfuran-2-ylmethylthio)ethyl]benzamide dioxalate] |  | 0.82 |  | ED50 ([2]; iv): 1.15 µmol/kg
CN(C)Cc1ccc(CSCCNC(=O)c2cccc(NS(=O)(=O)c3cccnc3)c2)o1 [SR 57933, 3-(3-pyridinesulfonamido)-N-[2-(5-dimethylaminomethylfuran-2-ylmethylthio)ethyl]benzamide] |  | 0.52 | 1.82 | 
